Experimental data: patent US20160128988A1, “COMBINATIONS FOR THE TREATMENT OF CANCER COMPRISING A MPS-1 KINASE INHIBITOR AND A MITOTIC INHIBITOR” (BAYER PHARMA AKTIENGESELLSCHAFT, priority 2013, published 2016)

Tests used:
[1] = tested on: NCI-H1299 human NSCLC xenograft tumors
Text: The effect of combination treatment of an Mps-1 kinase inhibitor (Compound A1) with docetaxel, another SAC activating, […], anti-mitotic agent, used as standard of care in NSCLC patients, was studied in the NCI-H1299 taxane intrinsically resistant human lung carcinoma (NSCLC) xenograft model in nude mice.
Docetaxel was applied intravenously once per week upon its respective MTD. Substances were formulated in optimal vehicles to achieve solutions. Animal body weight and tumor size were determined two times weekly. […] For combination treatment Compound A1and docetaxel were applied at the same day within a time frame of 4 hours. Animals of control and Mps-1 kinase inhibitor monotherapy group were treated for a duration of 20 days. Animals of docetaxel monotherapy and docetaxel/Mps-1 kinase inhibitor combination treatment groups were treated for a duration of 42 days. At the end of the study after one final treatment plasma and tumors were sampled for PK analysis and final tumor weight was determined.
NCI-H1299 human NSCLC tumor cells were implanted s.c. into nude mice on day 0. […] Compound A1 was administered orally (p.o.) upon 2.0 mg/kg twice daily (2QD) for 2 days on/5 days off (2 on/5 off) in monotherapy and in combination with docetaxel. Docetaxel was administered intravenously (i.v.) upon 15 mg/kg once daily (QD) once per week (1 on/6 off) in monotherapy and combination therapy. Tumor growth was monitored by determination of the tumor area using calliper measurement two to three times weekly. FIG. 2A: Time course of tumor growth. FIG. 2B: Weight of tumors in docetaxel/Mps-1 kinase inhibitor combination group at the end of the study at day 52 after tumor cell inoculation. FIG. 2C: Time course of animal body weight change during the course of the study.

[2] = tested on: MDA-MB 231 human triple-negative breast cancer xenograft tumors
Protocol: The effect of combination treatment of an Mps-1 kinase inhibitor (Compound A1) and paclitaxel was studied in the MDA-MB 231 human triple-negative (no expression of Her2/neu, progesterone receptor, estrogen receptor) xenograft model in nude mice.
Paclitaxel was applied intravenously once per week upon its respective MTD. Substances were formulated in optimal vehicles to achieve solutions. Animal body weight and tumor size were determined three times weekly. […] For combination treatment, Compound A1 and paclitaxel were applied at the same day within a time frame of 4 hours. Animals of control and monotherapy group (Compound A1 only) were treated for a duration of 28 days. Animals of paclitaxel monotherapy and paclitaxel/Mps-1 kinase inhibitor treatment groups were treated for a duration of 50 days. At the end of the study after one final treatment plasma and tumors were sampled for PK analysis and final tumor weight was determined.
MDA-MB 231 human breast cancer cells were implanted s.c. into nude mice on day 0. […] Compound A1 was administered orally (p.o.) upon 1 mg/kg twice daily (2QD) for 2 days on/5 days off (2 on/5 off) in monotherapy and in combination with paclitaxel. Paclitaxel was administered intravenously (i.v.) upon 20 mg/kg once daily (QD) once per week (1 on/6 off) in monotherapy and combination therapy. Tumor growth was monitored by determination of the tumor area using calliper measurement three times weekly. FIG. 3A: Time course of tumor growth. FIG. 3B: Weight of tumors in paclitaxel/Mps-1 kinase inhibitor combination group at the end of the study at day 73 after tumor cell inoculation. FIG. 3C: Time course of animal body weight change during the course of the study.

[3] = tested on: primary human NSCLC xenograft model LU387; assay: Combination with paclitaxel in primary human NSCLC xenograft model LU387; assay type: in vivo, nude mice; details: for mean tumor size: day 42 post treatment
Protocol: The effect of Compound A1 and paclitaxel compared with a vehicle was evaluated in the subcutaneous primary human NSCLC xenograft model LU387 on nude mice.

[4] = tested on: IGR-OV1 human ovarian carcinoma model
Protocol: Paclitaxel was administered IV QW at 50% of its respective MTD.

[5] = tested on: human glioblastoma model U87 MG; assay: Combination with vincristine in human glioblastoma model U87 MG (intracerebral); assay type: in vivo, nude mice
Protocol: The study was designed to determine the response of this glioblastoma model to the treatment with the investigational Compound A1 and vincristine, both alone at a fixed dose, and vincristine in combination with two different doses, both lower than that of Compound A1 used in the monotherapy schedule. The size of the glioblastoma was used as read out parameter for response.
The cell culture derived human xenograft U87 MG was initiated by transplantation of the tumor cells into the left hemisphere of the mouse brain. Treatment was done in three cycles between day 3 and day 19. Mice were sacrificed at day 24, the brain isolated and shock frozen in 2 methyl-butane. Tumor size were determined as measure for tumor growth inhibition from cryo-slizes after staining.

[6] = tested on: MKN1 human gastric carcinoma model; assay: Combination with paclitaxel in MKN1 human gastric carcinoma model; details: Compound A1 single agent 1 mg/kg or 2.5 mg/kg (40 days); paclitaxel and combination (78 treatment days)
Protocol: Compound A1 was administered PO in the 2QD intermittent (2 days on/5 days off) dosing schedule up to the respective MTD in single-agent treatment and at a dose of 40% of the single-agent MTD in combination. Paclitaxel was administered IV QW at its respective MTD. Treatment for all groups started at a tumor size of 27 mm^2, on day 7 after tumor cell inoculation. For combination treatment, Compound A1 and paclitaxel were administered on the same day within a time of 4 hours. Animals of the control and Compound A1 single-agent treatment groups were treated for 40 days. Animals of the paclitaxel single-agent and Compound A1 with paclitaxel combination treatment groups were treated for 78 days.

[7] = Compound A1 2 mg/kg 2QD 2on/5off p.o., docetaxel 15 mg/kg QD 1on/6off i.v.
[8] = day 24, single agents: Gr. B Compound A1 2.5 mg/kg p.o., Gr. C Vincristine 0.75 mg/kg i.p.

SMILES: COc1cc(S(C)(=O)=O)ccc1Nc1nc2ccc(-c3ccc(NC(=O)[C@H](C)c4ccc(F)cc4)cc3)cn2n1 [Compound A1]
- Fatal Tox [1, 7]: 0/8
- Max. Body weight loss (%) [1, 7]: −3%
- anti-tumor efficacy (in words) ([1]; Compound A1 2 mg/kg 2QD p.o. (20 treatment days), combination with docetaxel 15 mg/kg i.v. (42 treatment days)): weak efficacy
- T/C weight ([1]; mean final tumor weight, Compound A1 2 mg/kg 2QD 2on/5off p.o.): 1.01
- T/C area ([1]; relative mean tumor area, 20 treatment days, Compound A1 2 mg/kg 2QD 2on/5off p.o., docetaxel 15 mg/kg QD 1on/6off i.v.): 0.89
- Fatal Tox ([2]; Compound A1 1 mg/kg 2QD 2on/5off p.o., paclitaxel 20 mg/kg QD 1on/6off i.v.): 0/10
- anti-tumor efficacy (in words) ([2]; Compound A1 1 mg/kg 2QD p.o. (28 treatment days), combination with paclitaxel 20 mg/kg i.v. (50 treatment days)): no effect on tumor growth
- tolerability (in words) ([2]; Compound A1 1 mg/kg 2QD p.o., paclitaxel 20 mg/kg i.v.): well tolerated without critical body weight loss or toxicities
- T/C weight ([2]; mean final tumor weight, Compound A1 1 mg/kg 2QD 2on/5off p.o.): 0.92
- T/C area ([2]; relative mean tumor area, 28 treatment days, Compound A1 1 mg/kg 2QD 2on/5off p.o., paclitaxel 20 mg/kg QD 1on/6off i.v.): 0.91
- antitumor activity (in words) ([3]; Compound A1 single agent 1 mg/kg and 2.5 mg/kg, combination with paclitaxel): no significant antitumor activity
- T/Cvolume ([3]; day 42, Compound A1 2.5 mg/kg (high dose)): 0.73
- mean tumor size ([3]; Compound A1 1 mg/kg PO 2QD 2 days on/5 days off over 6 weeks): 1788 mm^3
- mean tumor size ([3]; Compound A1 2.5 mg/kg PO 2QD 2 days on/5 days off over 6 weeks): 1137 mm^3
- T/Cweight ([4]; 38 treatment days, Compound A1 2.5 mg/kg PO 2QD 2 days on/5 days off): 0.52
- relative T/Carea ([4]; 38 treatment days, Compound A1 single agent 2.5 mg/kg PO 2QD, paclitaxel 12 mg/kg IV QW, combination with Compound A1 2 mg/kg PO 2QD): 0.57
- anti-tumor efficacy (in words) ([4]; Compound A1 2.5 mg/kg single agent (38 days), paclitaxel 12 mg/kg and combination with Compound A1 2 mg/kg (treatment day 38 to 59)): moderate single-agent efficacy
- tolerability (in words) ([4]; mouse, in vivo): well tolerated without critical body weight loss or toxicities
- tumor growth inhibition (in words) ([5]; Compound A1 single drug 2.5 mg/kg, combination with vincristine): no inhibitory effect
- BWC [%] (at day), nadir of body weight ([5]; Gr. B: Compound A1 2.5 mg/kg p.o. BIDx2x3): −7.7 (d24) %
- Brain tumor inside [mm^2] ([5]; day 24, single agents: Gr. B Compound A1 2.5 mg/kg p.o. BIDx2x3, Gr. C Vincristine 0.75 mg/kg i.p. 1xqWx3): 15.89 +/− 9.93 mm^2
- Brain tumor outside [mm^2] [5, 8]: 5.50 +/− 4.09 mm^2
- Brain tumor total [mm^2] [5, 8]: 20.64 +/− 12.14 mm^2
- T/C (inside T) [%] [5, 8]: 91.3%
- anti-tumor efficacy (in words) [6]: no effect on tumor growth inhibition
